Measured values published in ChEMBL document CHEMBL5365411, “Synthesis of 1-(4-(dimethylamino)phenyl)-3,4-diphenyl-1H-pyrrole-2,5-dione analogues and their anti-inflammatory activities in lipopolysaccharide-induced BV2 cells” (Bioorg Med Chem Lett, 2023).
The source made the active and inactive calls. The calls are words filed in the database; no cut-off is given here.

How the values were obtained:
[1] = Cytotoxicity against LPS-induced mouse BV-2 cells assessed as cell viability at 20 uM incubated for 24 hrs by MTT assay relative to control; format: toxicity, cell-based; conditions: LPS-induced BV-2 cells, read-out: Activity
[2] = system: BV-2; test: Inhibition of LPS-induced NO release in mouse BV-2 cells at 20 uM incubated for 24 hrs by Griess assay relative to control; format: functional
[3] = system: BV-2; test: Inhibition of LPS-induced NO release in mouse BV-2 cells incubated for 24 hrs by Griess assay; format: functional, cell-based; conditions: for IC50: BV-2, 24 h
[4] = system: BV-2; test: Anti-inflammatory activity against LPS-induced mouse BV-2 cells assessed as reduction in IL-6 mRNA expression pre-incubated for 1 hrs followed by LPS addition and measured after 6 hrs by RT-PCR method; format: functional, cell-based; conditions: dose 5-20 µM, time 7.0 hrs
[5] = system: BV-2; test: Inhibition of LPS-induced NFkappaB activation in mouse BV2 cells assessed as reduction in p65 phosphorylated protein expression level pre-incubated for 30 mins followed by LPS addition by Western blot analysis; format: cell-based; conditions: dose 5-20 µM
[6] = system: BV-2; test: Anti-inflammatory activity against LPS-induced mouse BV-2 cells assessed as reduction in COX-2 mRNA expression pre-incubated for 1 hrs followed by LPS addition and measured after 6 hrs by RT-PCR method; format: functional, cell-based; conditions: dose 5-20 µM, time 7.0 hrs
[7] = system: BV-2; test: Anti-inflammatory activity against LPS-induced mouse BV-2 cells assessed as reduction in IL-1beta mRNA expression pre-incubated for 1 hrs followed by LPS addition and measured after 6 hrs by RT-PCR method; format: functional, cell-based; conditions: dose 5-20 µM, time 7.0 hrs
[8] = system: BV-2; test: Anti-inflammatory activity against LPS-induced mouse BV-2 cells assessed as reduction in TNF-alpha mRNA expression pre-incubated for 1 hrs followed by LPS addition and measured after 6 hrs by RT-PCR method; format: functional, cell-based; conditions: dose 5-20 µM, time 7.0 hrs
[9] = molecular target: MAP kinase p38 (Mus musculus) (UniProt P47811+O08911+Q9WUI1+Q9Z1B7); test: Inhibition of LPS-induced p38 phosphorylation in mouse BV-2 cells pretreated for 30 mins followed by LPS stimulation by Western blot analysis; format: cell-based; conditions: dose 5-20 µM
[10] = molecular target: c-Jun N-terminal kinase (Mus musculus) (UniProt Q91Y86+Q9WTU6+Q61831); test: Inhibition of LPS-induced JNK phosphorylation in mouse BV-2 cells pretreated for 30 mins followed by LPS stimulation by Western blot analysis; format: cell-based; conditions: dose 5-20 µM
[11] = system: BV-2; test: Inhibition of LPS-induced NFkappaB activation in mouse BV2 cells assessed as reduction in IkappaBalpha phosphorylated protein expression level pre-incubated for 30 mins followed by LPS addition by Western blot analysis; format: cell-based; conditions: dose 5-20 µM
[12] = system: BV-2; test: Anti-inflammatory activity against LPS-induced mouse BV-2 cells assessed as reduction in iNOS mRNA expression pre-incubated for 1 hrs followed by LPS addition and measured after 6 hrs by RT-PCR method; format: functional, cell-based; conditions: dose 5-20 µM, time 7.0 hrs
[13] = system: BV-2; test: Anti-inflammatory activity against LPS-induced mouse BV-2 cells assessed as reduction in iNOS protein expression pre-incubated for 1 hrs followed by LPS addition and measured after 18 hrs by Western blot analysis; format: functional, cell-based; conditions: dose 5-20 µM, time 19.0 hrs
[14] = system: BV-2; test: Anti-inflammatory activity against LPS-induced mouse BV-2 cells assessed as reduction in COX-2 protein expression pre-incubated for 1 hrs followed by LPS addition and measured after 18 hrs by Western blot analysis; format: functional, cell-based; conditions: dose 5-20 µM, time 19.0 hrs
[15] = Inhibition of LPS-induced ERK phosphorylation in mouse BV-2 cells pretreated for 30 mins followed by LPS stimulation by Western blot analysis; format: cell-based; conditions: dose 5-20 µM
[16] = system: BV-2; test: Cytotoxicity against LPS-induced mouse BV-2 cells assessed as cell viability at 2.5 to 20 uM incubated for 24 hrs by MTT assay; format: toxicity, cell-based; conditions: bv-2, 24 h, dose 2.5-20 µM
[17] = system: RAW264.7; test: Inhibition of LPS-induced NO release in mouse RAW264.7 cells at 15 uM incubated for 24 hrs by Griess assay relative to control; format: functional
[18] = system: BV-2; test: Inhibition of LPS-induced NO release in mouse BV-2 cells up to 100 uM incubated for 24 hrs by Griess assay; format: functional, cell-based

Chain of c-Jun N-terminal kinase (Mus musculus) (Q61831 whole entry, looked up): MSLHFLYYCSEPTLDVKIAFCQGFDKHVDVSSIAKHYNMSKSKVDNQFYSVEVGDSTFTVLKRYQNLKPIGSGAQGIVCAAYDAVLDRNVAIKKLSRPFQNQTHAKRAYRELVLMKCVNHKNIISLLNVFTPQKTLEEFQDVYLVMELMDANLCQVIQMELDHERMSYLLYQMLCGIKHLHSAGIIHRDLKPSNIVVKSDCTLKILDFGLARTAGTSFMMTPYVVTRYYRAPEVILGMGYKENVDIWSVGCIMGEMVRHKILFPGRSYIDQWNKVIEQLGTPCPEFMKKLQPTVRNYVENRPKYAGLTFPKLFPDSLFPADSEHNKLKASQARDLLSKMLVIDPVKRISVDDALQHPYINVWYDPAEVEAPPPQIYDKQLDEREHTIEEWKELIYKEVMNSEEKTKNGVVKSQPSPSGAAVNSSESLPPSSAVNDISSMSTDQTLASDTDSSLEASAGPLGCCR
Chain of c-Jun N-terminal kinase (Mus musculus) (Q91Y86 whole entry, looked up): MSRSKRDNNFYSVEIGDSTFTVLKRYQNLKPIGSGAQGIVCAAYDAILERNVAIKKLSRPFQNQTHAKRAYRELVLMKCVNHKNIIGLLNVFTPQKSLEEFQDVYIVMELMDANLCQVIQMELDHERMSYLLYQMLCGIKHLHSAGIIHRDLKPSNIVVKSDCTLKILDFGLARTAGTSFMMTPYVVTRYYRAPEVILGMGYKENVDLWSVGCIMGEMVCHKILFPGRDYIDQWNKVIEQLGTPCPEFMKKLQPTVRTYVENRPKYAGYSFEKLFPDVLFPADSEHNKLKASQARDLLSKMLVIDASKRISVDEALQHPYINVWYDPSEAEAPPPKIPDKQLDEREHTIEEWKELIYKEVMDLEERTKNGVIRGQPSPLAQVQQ
Chain of c-Jun N-terminal kinase (Mus musculus) (Q9WTU6 whole entry, looked up): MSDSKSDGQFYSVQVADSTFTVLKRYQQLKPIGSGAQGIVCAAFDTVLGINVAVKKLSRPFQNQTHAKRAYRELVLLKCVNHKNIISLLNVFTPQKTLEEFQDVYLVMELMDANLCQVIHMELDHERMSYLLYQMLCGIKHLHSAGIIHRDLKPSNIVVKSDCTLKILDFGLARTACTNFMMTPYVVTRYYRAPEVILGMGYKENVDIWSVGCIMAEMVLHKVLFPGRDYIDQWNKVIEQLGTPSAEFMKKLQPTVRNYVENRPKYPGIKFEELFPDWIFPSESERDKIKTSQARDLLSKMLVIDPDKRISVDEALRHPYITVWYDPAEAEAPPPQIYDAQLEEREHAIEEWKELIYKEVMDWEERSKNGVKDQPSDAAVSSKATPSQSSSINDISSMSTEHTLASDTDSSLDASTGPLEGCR

Row | Compound | viability at 24 h, 20 µM [1] [%] | inhibition at 20 µM [2] [%] | also measured
1 | O=C1C(c2ccccc2)=C(c2ccccc2)C(=O)N1CCc1ccccc1 | 100 | 14.2 | 
2 | CN(C)c1ccccc1N1C(=O)C(c2ccccc2)=C(c2ccccc2)C1=O | 100 | 81.6 | IC50 [3]: 13.3 µM
3 | CC(C)(C)OC(=O)Nc1ccc(N2C(=O)C(c3ccccc3)=C(c3ccccc3)C2=O)cc1 | 97.1 | 39.6 | 
4 | O=C1C(c2ccccc2)=C(c2ccccc2)C(=O)N1c1ccc(F)cc1 | 100 | 10.3 | 
5 | CC(C)(C)c1ccc(N2C(=O)C(c3ccccc3)=C(c3ccccc3)C2=O)cc1 | 100 | 18.4 | 
6 | O=C1C(c2ccccc2)=C(c2ccccc2)C(=O)N1c1ccc(N2CCCCC2)cc1 | 87.4 | 5.8 | 
7 | O=C1C(c2ccccc2)=C(c2ccccc2)C(=O)N1c1ccc(C(F)(F)F)cc1 | 99.4 | 12.4 | 
8 | O=C1C(c2ccccc2)=C(c2ccccc2)C(=O)N1c1ccccc1 | 93.3 | 22.5 | 
9 | O=C1C(c2ccccc2)=C(c2ccccc2)C(=O)N1c1ccc(OC(F)(F)F)cc1 | 94.5 | 12.9 | 
10 | CN(C)c1ccc(N2C(=O)C(c3ccccc3)=C(c3ccccc3)C2=O)cc1 | 98.9 | 83.5 | Activity [4]: Dose-Dependent Effect; inhibition [5]: Dose-Dependent Effect; Activity [6]: Dose-Dependent Effect; Activity [7]: Dose-Dependent Effect; Activity [8]: Dose-Dependent Effect; inhibition [9]: Dose-Dependent Effect; inhibition [10]: inactive; inhibition [11]: Dose-Dependent Effect; Activity [12]: Dose-Dependent Effect; Activity [13]: Dose-Dependent Effect; Activity [14]: Dose-Dependent Effect; inhibition [3]: Dose-Dependent Effect; IC50 [3]: 7.1 µM; inhibition [15]: inactive; Activity [16]: Non-Toxic
11 | O=C1CCC(N2C(=O)c3ccccc3C2=O)C(=O)N1 (centres undefined) [THALIDOMIDE] | 93.5 | 0 | inhibition at 15 µM [17]: 15%; inhibition [18]: inactive
12 | COc1ccc(N2C(=O)C(c3ccccc3)=C(c3ccccc3)C2=O)cc1 | 97.2 | 32.3 | 
13 | O=C1C(c2ccccc2)=C(c2ccccc2)C(=O)N1c1ccc(I)cc1 | 100 | 22.5 | 
14 | O=C1C(c2ccccc2)=C(c2ccccc2)C(=O)N1Cc1ccccc1 | 100 | 21.9 | 
15 | CN(C)c1cccc(N2C(=O)C(c3ccccc3)=C(c3ccccc3)C2=O)c1 | 90.2 | 82.1 | IC50 [3]: 12.7 µM
16 | Nc1ccc(N2C(=O)C(c3ccccc3)=C(c3ccccc3)C2=O)cc1 | 90.2 | 27.6 | 
17 | O=C1C(c2ccccc2)=C(c2ccccc2)C(=O)N1c1ccc(Br)cc1 | 95.7 | 11.5 | 
18 | N#Cc1ccc(N2C(=O)C(c3ccccc3)=C(c3ccccc3)C2=O)cc1 | 80 | 6.9 | 
19 | O=C1C(c2ccccc2)=C(c2ccccc2)C(=O)N1c1ccc([N+](=O)[O-])cc1 | 99.4 | 19.3 | 
20 | O=C1CCC(N2C(=O)C(c3ccccc3)=C(c3ccccc3)C2=O)C(=O)N1 (centres undefined) | 98.5 | 10.2 | IC50 [3]: > 50 µM
21 | Cc1ccc(N2C(=O)C(c3ccccc3)=C(c3ccccc3)C2=O)cc1 | 97.8 | 25.8 | 
22 | O=C1C(c2ccccc2)=C(c2ccccc2)C(=O)N1c1ccc(Cl)cc1 | 93.9 | 16 | 
